# Experimental data taken from ChEMBL document CHEMBL1123491, “N6-substituted N-alkyladenosine-5'-uronamides: bifunctional ligands having recognition groups for A1 and A2 adenosine receptors” (J Med Chem, 1986).
# pIC50: −log10 of the molar value.
# Target: T1, Adenosine receptor A1 (Rattus norvegicus, UniProt P25099)
# T1 sequence (P25099 whole entry): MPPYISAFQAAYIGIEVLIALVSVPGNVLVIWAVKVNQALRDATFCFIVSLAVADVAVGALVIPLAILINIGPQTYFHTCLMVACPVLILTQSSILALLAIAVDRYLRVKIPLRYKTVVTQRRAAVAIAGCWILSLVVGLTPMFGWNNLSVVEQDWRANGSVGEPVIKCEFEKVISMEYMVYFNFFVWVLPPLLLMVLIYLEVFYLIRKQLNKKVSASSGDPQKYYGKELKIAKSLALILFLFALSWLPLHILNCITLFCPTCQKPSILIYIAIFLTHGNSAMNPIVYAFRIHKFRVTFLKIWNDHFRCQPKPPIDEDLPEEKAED
# Experiment: Potency against rat brain adenosine A1 receptor
# Conditions: not given
row,Structure (SMILES),pIC50
1,CCNC(=O)[C@H]1O[C@@H](n2cnc3c(N[C@H](CC)Cc4ccccc4)ncnc32)[C@H](O)[C@@H]1O,9.28
2,CCNC(=O)[C@H]1O[C@@H](n2cnc3c(N[C@H](C)Cc4ccccc4)ncnc32)[C@H](O)[C@@H]1O,8.62
3,CCNC(=O)[C@H]1OC(n2cnc3c(N(C)C)ncnc32)[C@H](O)[C@@H]1O (some centres undefined),5.00
4,CCC(CC)Nc1ncnc2c1ncn2C1O[C@H](C(=O)NCc2ccccc2)[C@@H](O)[C@H]1O (some centres undefined),6.98
5,C=CCNC(=O)[C@H]1OC(n2cnc3c(NC(CC)CC)ncnc32)[C@H](O)[C@@H]1O (some centres undefined),7.77
6,CCC(CC)Nc1ncnc2c1ncn2C1O[C@H](C(=O)N(C)C)[C@@H](O)[C@H]1O (some centres undefined),4.89
7,NC(=O)[C@H]1OC(n2cnc3c(N)ncnc32)[C@H](O)[C@@H]1O (some centres undefined),7.15
8,CNC(=O)[C@H]1O[C@@H](n2cnc3c(N)ncnc32)[C@H](O)[C@@H]1O,6.98
9,CCC(CC)NC(=O)[C@H]1OC(n2cnc3c(NC(CC)CC)ncnc32)[C@H](O)[C@@H]1O (some centres undefined),5.85
10,CCC(CC)Nc1ncnc2c1ncn2C1O[C@H](C(=O)NC)[C@@H](O)[C@H]1O (some centres undefined),7.70
11,CCC(CC)Nc1ncnc2c1ncn2C1O[C@H](C(=O)N(CC)CC)[C@@H](O)[C@H]1O (some centres undefined),5.77
12,CCNC(=O)[C@H]1O[C@@H](n2cnc3c(N[C@@H](CC)Cc4ccccc4)ncnc32)[C@H](O)[C@@H]1O,7.59

# Target: T1, Adenosine receptor A1
# Experiment: Potency against rat brain A1 adenosine receptor
# Conditions: not given
row,Structure (SMILES),pIC50
1,CCC(CC)Nc1ncnc2c1ncn2C1O[C@H](C(=O)NC2CC2)[C@@H](O)[C@H]1O (some centres undefined),8.70
2,CCC(CC)Nc1ncnc2c1ncn2C1O[C@H](C(=O)NC(C)C)[C@@H](O)[C@H]1O (some centres undefined),7.96

# Target: Adenosine A2 receptor (Homo sapiens, UniProt P29275+P29274)
# Experiment: Potency against human platelet A2 adenosine receptor
# Conditions: not given
row,Structure (SMILES),EC50
1,CCNC(=O)[C@H]1O[C@@H](n2cnc3c(N[C@H](C)Cc4ccccc4)ncnc32)[C@H](O)[C@@H]1O,3.1 µM
2,Nc1ncnc2c1ncn2[C@@H]1O[C@H](C(=O)NC2CC2)[C@@H](O)[C@H]1O,0.26 µM
3,CCNC(=O)[C@H]1OC(n2cnc3c(N(C)C)ncnc32)[C@H](O)[C@@H]1O (some centres undefined),> 100 µM
4,NC(=O)[C@H]1OC(n2cnc3c(N)ncnc32)[C@H](O)[C@@H]1O (some centres undefined),5.7 µM
5,CNC(=O)[C@H]1O[C@@H](n2cnc3c(N)ncnc32)[C@H](O)[C@@H]1O,1.7 µM

# Target: T2, Adenosine receptor A1 (Rattus norvegicus) (UniProt P25099)
# T2 sequence (whole entry): T1 sequence (P25099 whole entry)
# Experiment: Potency against rat brain adenosine A1 receptor at 10 uM
# Conditions: not given
row,Structure (SMILES),inhibition
1,O=C([C@H]1OC(n2cnc3c(N4CCCCC4)ncnc32)[C@H](O)[C@@H]1O)N1CCCCC1 (some centres undefined),0%

# Target: Adenosine A2 receptor (Rattus norvegicus, UniProt P29276+P30543)
# Experiment: Potency against PC12 cell A2 adenosine receptor by adenylate cyclase activation
# Format: cell-based
# Conditions: pc-12
row,Structure (SMILES),EC50
1,CCNC(=O)[C@H]1O[C@@H](n2cnc3c(N[C@H](C)Cc4ccccc4)ncnc32)[C@H](O)[C@@H]1O,0.98 µM
2,O=C([C@H]1OC(n2cnc3c(N4CCCCC4)ncnc32)[C@H](O)[C@@H]1O)N1CCCCC1 (some centres undefined),> 100 µM
3,CCNC(=O)[C@H]1OC(n2cnc3c(N(C)C)ncnc32)[C@H](O)[C@@H]1O (some centres undefined),> 100 µM
4,CCNC(=O)[C@H]1OC(n2cnc3c(NC4CCCCC4)ncnc32)[C@H](O)[C@@H]1O (some centres undefined),1.83 µM
5,CCC(CC)Nc1ncnc2c1ncn2C1O[C@H](C(=O)NC2CC2)[C@@H](O)[C@H]1O (some centres undefined),0.54 µM
6,CCC(CC)Nc1ncnc2c1ncn2C1O[C@H](C(=O)NC(C)C)[C@@H](O)[C@H]1O (some centres undefined),5.1 µM
7,CCC(CC)Nc1ncnc2c1ncn2C1O[C@H](C(=O)NCc2ccccc2)[C@@H](O)[C@H]1O (some centres undefined),> 100 µM
8,C=CCNC(=O)[C@H]1OC(n2cnc3c(NC(CC)CC)ncnc32)[C@H](O)[C@@H]1O (some centres undefined),8.9 µM
9,CCC(CC)Nc1ncnc2c1ncn2C1O[C@H](C(=O)N(C)C)[C@@H](O)[C@H]1O (some centres undefined),> 100 µM
10,NC(=O)[C@H]1OC(n2cnc3c(N)ncnc32)[C@H](O)[C@@H]1O (some centres undefined),1.56 µM
11,CCCCN(C)C(=O)[C@H]1OC(n2cnc3c(NC(CC)CC)ncnc32)[C@H](O)[C@@H]1O (some centres undefined),> 100 µM
12,CCC(CC)NC(=O)[C@H]1OC(n2cnc3c(NC(CC)CC)ncnc32)[C@H](O)[C@@H]1O (some centres undefined),> 100 µM
13,CCC(CC)Nc1ncnc2c1ncn2C1O[C@H](C(=O)NC)[C@@H](O)[C@H]1O (some centres undefined),6.4 µM
14,CCC(CC)Nc1ncnc2c1ncn2C1O[C@H](C(=O)N(CC)CC)[C@@H](O)[C@H]1O (some centres undefined),> 100 µM
